Laboratory results from the NIST ThermoML archive (doi:10.1021/acs.jced.5b00903).
Numbers after ± are expanded uncertainties.

Details: surface light scattering

Row | surface tension liquid-gas (293.15 K) | surface tension liquid-gas (298.15 K) | surface tension liquid-gas (303.15 K) | surface tension liquid-gas (308.15 K) | surface tension liquid-gas (313.15 K) | surface tension liquid-gas (318.15 K) | surface tension liquid-gas (323.15 K) | SMILES
1 | 20.12 ± 0.23 mN/m | 19.69 ± 0.22 mN/m | 19.13 ± 0.21 mN/m | 18.67 ± 0.21 mN/m | 18.1 ± 0.2 mN/m | 17.7 ± 0.2 mN/m |  | CCCCCCC [heptane]
2 |  | 25.56 ± 0.29 mN/m | 24.95 ± 0.28 mN/m | 24.65 ± 0.28 mN/m | 23.93 ± 0.27 mN/m | 23.58 ± 0.26 mN/m | 23.21 ± 0.26 mN/m | CCCCCCO [hexan-1-ol]
3 |  | 25.29 ± 0.28 mN/m | 24.87 ± 0.28 mN/m | 24.46 ± 0.27 mN/m | 24.05 ± 0.27 mN/m | 23.65 ± 0.26 mN/m | 23.21 ± 0.26 mN/m | CCCCCO [pentan-1-ol]
4 |  | 23.31 ± 0.24 mN/m | 22.9 ± 0.24 mN/m | 22.52 ± 0.23 mN/m | 22.1 ± 0.23 mN/m | 21.68 ± 0.22 mN/m | 21.27 ± 0.22 mN/m | CCCO [propan-1-ol]
